Positions of bridges follow the written chain, without caps; N, C: chain ends. Non-standard residues stand in square brackets, D forms with d. Residues, ends and D or L forms follow the SMILES beside them. *: point of attachment. Ileψ(thiazoline)Cys = CC[C@H](C)[C@H](N)C1=N[C@H](C(=O)*)CS1; dOrn = NCCC[C@@H](N)C(=O)O
Key:
[1] = molecular target: T1, Solute carrier organic anion transporter family member 1B1 (Homo sapiens, UniProt Q9Y6L6); conditions: chinese hamster, cho, 10 µM
T1 sequence (Q9Y6L6 whole entry): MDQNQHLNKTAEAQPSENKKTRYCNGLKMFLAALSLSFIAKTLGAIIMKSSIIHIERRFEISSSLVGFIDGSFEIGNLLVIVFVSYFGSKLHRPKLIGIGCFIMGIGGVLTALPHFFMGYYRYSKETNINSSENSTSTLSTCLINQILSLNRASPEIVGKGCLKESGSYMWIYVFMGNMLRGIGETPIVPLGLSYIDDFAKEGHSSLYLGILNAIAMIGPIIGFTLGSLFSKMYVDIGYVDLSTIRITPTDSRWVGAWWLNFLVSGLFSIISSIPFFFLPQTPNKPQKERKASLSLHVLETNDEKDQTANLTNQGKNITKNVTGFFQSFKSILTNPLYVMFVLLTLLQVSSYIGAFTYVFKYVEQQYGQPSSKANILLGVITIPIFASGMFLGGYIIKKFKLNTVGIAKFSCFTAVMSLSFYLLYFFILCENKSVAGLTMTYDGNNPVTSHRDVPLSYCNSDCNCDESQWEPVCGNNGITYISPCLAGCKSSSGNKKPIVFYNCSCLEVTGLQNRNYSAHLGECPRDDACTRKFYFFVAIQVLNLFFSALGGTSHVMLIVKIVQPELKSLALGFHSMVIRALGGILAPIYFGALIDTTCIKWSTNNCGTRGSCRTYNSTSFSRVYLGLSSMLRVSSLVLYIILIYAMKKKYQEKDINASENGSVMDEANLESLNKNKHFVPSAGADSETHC

[2] = molecular target: T2, Solute carrier organic anion transporter family member 1B3 (Homo sapiens, UniProt Q9NPD5); conditions: chinese hamster, cho, 10 µM
T2 sequence (Q9NPD5 whole entry): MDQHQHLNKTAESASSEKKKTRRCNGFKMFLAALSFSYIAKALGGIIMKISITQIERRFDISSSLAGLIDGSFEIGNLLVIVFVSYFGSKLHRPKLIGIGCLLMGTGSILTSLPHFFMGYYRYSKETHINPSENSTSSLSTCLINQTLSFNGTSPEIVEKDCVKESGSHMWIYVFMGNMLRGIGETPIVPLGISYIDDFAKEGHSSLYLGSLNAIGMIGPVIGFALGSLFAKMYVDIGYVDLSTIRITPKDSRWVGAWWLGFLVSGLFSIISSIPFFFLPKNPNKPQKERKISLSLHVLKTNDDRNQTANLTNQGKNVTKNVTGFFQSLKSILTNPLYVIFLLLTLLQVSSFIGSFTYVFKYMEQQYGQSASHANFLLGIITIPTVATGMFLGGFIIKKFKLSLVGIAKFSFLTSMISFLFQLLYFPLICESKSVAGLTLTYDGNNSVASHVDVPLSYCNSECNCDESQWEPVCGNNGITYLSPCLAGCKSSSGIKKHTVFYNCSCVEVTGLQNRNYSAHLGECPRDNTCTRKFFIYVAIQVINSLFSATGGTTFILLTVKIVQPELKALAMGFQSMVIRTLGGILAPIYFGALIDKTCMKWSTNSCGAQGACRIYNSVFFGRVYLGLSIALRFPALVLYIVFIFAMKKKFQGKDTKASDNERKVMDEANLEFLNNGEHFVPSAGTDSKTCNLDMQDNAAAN

| SMILES | residual activity [1] | residual activity [2] |
| --- | --- | --- |
| CC(=O)N[C@@H](CCC(=O)O)C(=O)O | 59.95% | 77.8% |
| Clc1ccc(CSC(Cn2ccnc2)c2ccc(Cl)cc2Cl)cc1.O=[N+]([O-])O (stereo unspecified) [SULCONAZOLE NITRATE] | 116.2% | 107.6% |
| CN[C@@H]1[C@H](O)[C@H](NC)[C@H]2O[C@@]3(O)C(=O)C[C@@H](C)O[C@H]3O[C@@H]2[C@H]1O.Cl | 89.17% | 96.23% |
| C=C1CCC(C2CC(=O)OC2=O)C(=O)CCC2C1CC2(C)C (stereo unspecified) [2-METHYLENE-5-(2,5-DIOXOTETRAHYDROFURAN-3-YL)-6-OXO--10,10-DIMETHYLBICYCLO[7: 2: 0]UNDECANE] | 29.82% | 47.58% |
| CS(=O)(=O)[O-].C[n+]1ccccc1C=NO [PRALIDOXIME MESYLATE] | 73.31% | 98.72% |
| CC(=O)O[C@@H]1C[C@H]2C(C)(C)C(=O)C=C[C@]2(C)[C@H]2CC[C@@]3(C)[C@H](c4ccoc4)OC(=O)[C@H]4O[C@]43[C@@]21C [GEDUNIN] | 65.45% | 105.4% |
| COC1=C[C@]23CCCN2CCc2cc4c(cc2[C@@H]3[C@@H]1O)OCO4 [CEPHALOTAXINE] | 77.26% | 77.89% |
| CCN(CC)C(=O)c1cccc(C)c1 [DIETHYLTOLUAMIDE] | 108.7% | 107.2% |
| COC(=O)C[C@H]1C(C)(C)[C@@H](O)[C@@H]2CC3=C4C=C(OC)O[C@@H](c5ccoc5)[C@]4(C)CCC3[C@@]1(C)C2=O (stereo partly drawn) [3-DEOXO-3beta-HYDROXYMEXICANOLIDE 16-ENOL ETHER] | 27.18% | 106.5% |
| Cc1c(OCC(F)(F)F)ccnc1C[S+]([O-])c1nc2ccccc2[nH]1 (stereo unspecified) [LANSOPRAZOLE] | 95.47% | 100.5% |
| OC[C@H]1O[C@@H](n2cnc3c(O)ncnc32)[C@H](O)[C@@H]1O [INOSINE] | 110.7% | 107.3% |
| C[C@@H]1O[C@@H](OC[C@H]2O[C@@H](Oc3c(-c4ccc(OCCO)c(OCCO)c4)oc4cc(OCCO)cc(O)c4c3=O)[C@H](O)[C@@H](O)[C@@H]2O)[C@H](O)[C@H](O)[C@H]1O [TROXERUTIN] | 61.9% | 49.51% |
| CN(C)C(=S)SSC(=S)N(C)C [THIRAM] | 104.4% | 99.01% |
| COc1ccc2oc(-c3ccccc3)c(OC)c(=O)c2c1 [3,6-DIMETHOXYFLAVONE] | 99.01% | 76.93% |
| O=c1cc(-c2ccccc2)oc2c(O)c(O)ccc12 [7,8-DIHYDROXYFLAVONE] | 107.3% | 140.6% |
| Cc1nnc(SCC2=C(C(=O)[O-])N3C(=O)[C@@H](NC(=O)Cn4cnnn4)[C@H]3SC2)s1.[Na+] [CEFAZOLIN SODIUM] | 84.25% | 95.92% |
| CN[C@@H](Cc1c[nH]c2ccccc12)C(=O)O [ABRINE] | 86.73% | 98.3% |
| CC[C@@]1(O)C[C@H](O[C@H]2C[C@H](N(C)C)[C@H](O)[C@H](C)O2)c2c(cc3c(c2O)C(=O)c2c(O)ccc(O)c2C3=O)[C@H]1C(=O)OC [PYRROMYCIN] | 90.45% | 81.89% |
| COc1ccc(C(C)=O)c(O)c1 [PAEONOL] | 121.7% | 108.3% |
| Cc1ncc(CNC(=O)N(CCCl)N=O)c(N)n1 [NIMUSTINE] | 121.9% | 112% |
| CS(=O)(=O)OCCCCOS(C)(=O)=O [BUSULFAN] | 113.7% | 98.16% |
| Nc1c2ccccc2nc2ccccc12 [AMINACRINE] | 54.19% | 80.82% |
| CCN(CC)CCNC(=O)c1cc(Cl)c(N)cc1OC.Cl | 84.82% | 108.2% |
| COc1cccc(-c2cc(=O)c3ccc(OC)cc3o2)c1 [7,3'-DIMETHOXYFLAVONE] | 98.64% | 101.6% |

| SMILES | residual activity [1] | residual activity [2] |
| --- | --- | --- |
| COc1ccc(-c2coc3c(O)c(OC)ccc3c2=O)cc1 [RETUSIN 7-METHYL ETHER] | 126.8% | 107.3% |
| Cl.NCCc1cc(O)c(O)cc1O [OXIDOPAMINE HYDROCHLORIDE] | 80.99% | 100.5% |
| CC(=O)Oc1ccc2c(c1C(C)C)CC[C@H]1C(C)(C)CCC[C@]21C | 70.34% | 105.1% |
| CC[C@H](C)[C@H](N)C1=N[C@H](C(=O)N[C@@H](CC(C)C)C(=O)N[C@H](CCC(=O)O)C(=O)N[C@H](C(=O)N[C@H]2CCCCNC(=O)[C@H](CC(N)=O)NC(=O)[C@@H](CC(=O)O)NC(=O)[C@H](Cc3cnc[nH]3)NC(=O)[C@@H](Cc3ccccc3)NC(=O)[C@H]([C@@H](C)CC)NC(=O)[C@@H](CCCN)NC2=O)[C@@H](C)CC)CS1 [BACITRACIN] ({Ileψ(thiazoline)Cys}-L[dE]IK[dOrn]I[dF]H[dD]N; lactam 4-C) | 78.2% | 77.52% |
| O=C1c2ccccc2C(=O)c2ccccc21 [ANTHRAQUINONE] | 96.98% | 78.8% |
| COc1ccc(-c2cc(=O)c3ccccc3o2)cc1OC [3',4'-DIMETHOXYFLAVONE] | 187.6% | 129.7% |
| Nc1nc2ncc(C(=O)O)nc2c(=O)[nH]1 [PTERIN-6-CARBOXYLIC ACID] | 102.1% | 99.97% |
| O=C([O-])CF.[Na+] [SODIUM FLUOROACETATE] | 112.7% | 104.2% |
| Clc1ccc2c(c1)C(N1CCNCC1)=Nc1ccccc1O2 [AMOXAPINE] | 115.8% | 101.5% |
| CC1=C2C(O)C(=O)OC3CC4C(C)(C)C(=O)C=C[C@]4(C)C(CC1)[C@]23C (stereo partly specified) [MEROGEDUNIN] | 106.3% | 83.06% |
| CCC(=O)c1c(O)cc(O)cc1O [FLOPROPIONE] | 69.54% | 107.4% |
| CC1=CC2C(CC1=O)C(C)=CCC2C(C)C (stereo unspecified) [MUUROLLADIE-3-ONE] | 267.7% | 117.6% |
| Nc1nccs1 [AMINOTHIAZOLE] | 92.13% | 76.59% |
| CC(C)c1c(O)ccc2c1CC[C@H]1C(C)(C)CCC[C@]21C [TOTAROL] | 159.4% | 131.3% |
| COc1cc(OC)c(OC)cc1C=O | 48.71% | 59.17% |
| CC[C@H](C)[C@@H](NC)C(=O)O | 122.8% | 105.9% |
| Cl.O=c1n(CCCN2CCN(c3cccc(Cl)c3)CC2)nc2ccccn12 [TRAZODONE HYDROCHLORIDE] | 98.06% | 111.6% |
| C=C(C)[C@@H]1CC[C@]2(C(=O)O)CC[C@]3(C)[C@H](CC[C@@H]4[C@@]5(C)CC[C@H](O)C(C)(C)[C@@H]5CC[C@]43C)[C@@H]12 [BETULINIC ACID] | 25.94% | 38.62% |
| Cc1nccc2c1[nH]c1cc(O)ccc12.Cl [HARMOL HYDROCHLORIDE] | 91.2% | 124.7% |
| CCOC(=O)[N-]c1cn(N2CCOCC2)n[o+]1 [MOLSIDOMINE] | 70.9% | 97.14% |
| O=C(CCc1ccc(O)cc1)c1c(O)cc(O)cc1O [PHLORETIN] | 83.5% | 98.4% |
| CC(C(=O)O)c1cccc(Oc2ccccc2)c1 (stereo unspecified) [FENOPROFEN] | 160.2% | 96.37% |
| C=C(C)[C@H]1COc2cc3oc(=O)ccc3cc2O1 [OBLIQUIN] | 112.3% | 103.6% |
| CN1[C@@H]2CC[C@H]1C[C@@H](OC(c1ccccc1)c1ccccc1N)C2 (stereo partly specified) [AMINOBENZTROPINE] | 75.33% | 77.23% |
